The source of these data is ChEMBL document CHEMBL4052735, “One-pot two-step facile synthesis of 2,3,4,5-tetra substituted dihydrooxazoles and their antimicrobial activity” (2017).

The structures appear in SMILES notation. In brackets after ≈: the same amount, converted by molar mass. Activity calls are given as the source filed them.

Format in all cases: functional
Assay [1] concerns Phytophthora infestans. Put plainly: Antifungal activity against Phytophthora infestans after 48 to 72 hrs by disk diffusion method. (In general: In agar diffusion tests the substance spreads into inoculated agar from a disc or well.)
For assay [2], the system named is Staphylococcus aureus. Put plainly: Antibacterial activity against Staphylococcus aureus after 24 hrs by visual and spectrophotometric analysis.
The test system of assay [3] is Staphylococcus aureus. Put plainly: Bactericidal activity against Staphylococcus aureus after 24 hrs by visual and spectrophotometric analysis.
Assay [4] has as its system Bacillus subtilis. Put plainly: Antibacterial activity against Bacillus subtilis after 24 hrs by visual and spectrophotometric analysis.
Assay [5] concerns Bacillus subtilis. Description: Bactericidal activity against Bacillus subtilis after 24 hrs by visual and spectrophotometric analysis.
Assay [6] has as its system Escherichia coli. Description: Bactericidal activity against Escherichia coli after 24 hrs by visual and spectrophotometric analysis.
Assay [7] relates to Klebsiella pneumoniae. Description: Antibacterial activity against Klebsiella pneumoniae after 24 hrs by visual and spectrophotometric analysis.
Assay [8] relates to Klebsiella pneumoniae. Put plainly: Bactericidal activity against Klebsiella pneumoniae after 24 hrs by visual and spectrophotometric analysis.
Assay [9] has as its system Escherichia coli. Put plainly: Antibacterial activity against Escherichia coli after 24 hrs by visual and spectrophotometric analysis.
Assay [10] relates to Klebsiella pneumoniae. Description: Ratio of MBC to MIC against Klebsiella pneumoniae.
For assay [11], the system named is Staphylococcus aureus. Description: Ratio of MBC to MIC against Staphylococcus aureus.
In assay [12] the test system is Bacillus subtilis. Put plainly: Ratio of MBC to MIC against Bacillus subtilis.
Assay [13] deals with Escherichia coli. Put plainly: Ratio of MBC to MIC against Escherichia coli.

`COC1=CC(=O)C[C@@H](C)[C@]12Oc1c(Cl)c(OC)cc(OC)c1C2=O` [GRISEOFULVIN] had a minimal inhibitory concentration (MIC) in assay [1] of 20 µg/mL (≈ 56.7 µM).

For the compound `O=C(O)c1cn(C2CC2)c2cc(N3CCNCC3)c(F)cc2c1=O` [CIPROFLOXACIN], the MIC in assay [2] amounted to 6.5 µg/mL (≈ 19.6 µM); in assay [4] it was 10 µg/mL (≈ 30.2 µM); in assay [7], 6.25 µg/mL (≈ 18.9 µM). Moreover, the MBC was determined as 12.5 µg/mL (≈ 37.7 µM) in assay [3], 25 µg/mL (≈ 75.4 µM) in assay [5], 25 µg/mL (≈ 75.4 µM) in assay [6] and 10.2 µg/mL (≈ 30.9 µM) in [8].

Take `Cc1ccccc1NC(=S)NN1C(c2ccccc2)=C(c2ccccc2)OC1c1ccc(O)cc1` (configuration not stated): the MIC entry in assay [2], in [4] and in assay [9] was “inactive” in each case. For the same compound, the MBC entry in assay [3], in [5] and in assay [6] was “inactive” each time. This compound returned an MIC in [7] of 50 µg/mL (≈ 104 µM). The same compound displayed an MBC in assay [8] of 100 µg/mL (≈ 209 µM). Moreover, the Ratio in assay [10] is recorded as 2.

For `Oc1ccc(C2OC(c3ccccc3)=C(c3ccccc3)N2NC(=S)Nc2ccccc2Cl)cc1` (configuration not stated), the minimum inhibitory concentration (MIC) in assay [2] was found to be 30 µg/mL (≈ 60 µM); in [4], 40 µg/mL (≈ 80 µM). Moreover, the results for the minimal bactericidal concentration (MBC) in assay [3] and in assay [5] were 50 µg/mL (≈ 100 µM) and 100 µg/mL (≈ 200 µM), respectively. Also, the MIC entry in [9] and in assay [7] was “inactive” each time. Besides, the MBC entry in assay [6] and in assay [8] was “inactive” each time. Also, the Ratio in assay [11] was found to be 1.6; in assay [12] it was 2.5.

With `Oc1ccc(C2OC(c3ccccc3)=C(c3ccccc3)N2NC(=S)Nc2ccccc2)cc1` (configuration not stated), the lowest concentration to inhibit growth in assay [1] (MIC) was 10 µg/mL (≈ 21.5 µM).

In the case of `COc1ccc(C2OC(c3ccccc3)=C(c3ccccc3)N2NC(=S)Nc2ccccc2OC)cc1` (configuration not stated), the minimal inhibitory concentration (MIC) in assay [2] is 40 µg/mL (≈ 78.5 µM); in [4] it was 30 µg/mL (≈ 58.9 µM). The MBC in assay [3] turned out to be 100 µg/mL (≈ 196 µM); in assay [5], 50 µg/mL (≈ 98.1 µM). Further, the MIC result in assay [9] and in [7] was “inactive” each time. The MBC result in [6] and in assay [8] was “inactive” throughout. Besides, the Ratio in assay [11] is 2.5; in assay [12] it was 1.6.

Take `Cc1ccc(NC(=S)NN2C(c3ccccc3)=C(c3ccccc3)OC2c2ccc(O)cc2)cc1` (configuration not stated): the MIC in [1] was found to be 14 µg/mL (≈ 29.2 µM).

Take `Oc1ccc(C2OC(c3ccccc3)=C(c3ccccc3)N2NC(=S)Nc2ccc(Cl)cc2)cc1` (configuration not stated): the MIC in [1] turned out to be 16 µg/mL (≈ 32 µM).

`COc1ccccc1NC(=S)NN1C(c2ccccc2)=C(c2ccccc2)OC1c1ccc(O)cc1` (configuration not stated): the MIC entry in [2], in assay [4] and in assay [9] was “inactive” each time. Besides, the MBC result in assay [3], in [5] and in assay [6] was “inactive” each time. The compound also returned an MIC in assay [7] of 25 µg/mL (≈ 50.4 µM). The MBC in assay [8] is 50 µg/mL (≈ 101 µM). For the same compound, the Ratio in assay [10] is recorded as 2.

On to `COc1ccc(C2OC(c3ccccc3)=C(c3ccccc3)N2NC(=S)Nc2ccccc2C)cc1` (configuration not stated), for which the MIC in assay [2] was determined as 30 µg/mL (≈ 60.8 µM); in assay [4], 20 µg/mL (≈ 40.5 µM); in assay [7] it was 25 µg/mL (≈ 50.6 µM). Moreover, the MBC in assay [3] stood at 100 µg/mL (≈ 203 µM); in assay [5], 50 µg/mL (≈ 101 µM); in [8], 50 µg/mL (≈ 101 µM). In addition, in [9], the MIC result is “inactive”. Further, the MBC result in assay [6] was “inactive”. In addition, the Ratio in assay [11] was determined as 3.3; in assay [12], 2.5; in assay [10], 2.

As for `COc1ccc(C2OC(c3ccccc3)=C(c3ccccc3)N2NC(=S)Nc2ccccc2Cl)cc1` (configuration not stated), the MIC result in [2], in [4] and in [7] was “inactive” each time. Besides, the MBC result in assay [3], in [5] and in [8] was “inactive” each time. The same compound displayed an MIC in assay [9] of 25 µg/mL (≈ 48.6 µM). Besides, the minimum bactericidal concentration (MBC) in [6] came to 50 µg/mL (≈ 97.3 µM). Also, the Ratio in assay [13] was 2.

For the compound `COc1ccc(C2OC(c3ccccc3)=C(c3ccccc3)N2NC(=S)Nc2ccc(Cl)cc2)cc1` (configuration not stated), the minimum inhibitory concentration (MIC) in [1] was determined as 16 µg/mL (≈ 31.1 µM).

`COc1ccc(NC(=S)NN2C(c3ccccc3)=C(c3ccccc3)OC2c2ccc(O)cc2)cc1` (configuration not stated): inhibition of growth in assay [1] (MIC) required 16 µg/mL (≈ 32.3 µM).

`COc1ccc(C2OC(c3ccccc3)=C(c3ccccc3)N2NC(=S)Nc2ccc(C)cc2)cc1` (configuration not stated) displayed an MIC in [1] of 14 µg/mL (≈ 28.4 µM).

The MIC is the lowest concentration that inhibits growth of the organism. As a reminder, the MBC is the smallest concentration meeting the test's criterion for killing.
